# Test system: ALT (alanine aminotransferase)
# Experiment: Phase II clinical study: ALT index of liver function
# Format: in vivo, human
# Conditions: FAS, after 52 weeks of treatment
# Protocol: This is a randomized, double-blind, placebo-controlled, multicenter, and dose-finding phase II clinical study with foundational treatment. In the clinical trial, three different dose test groups and a placebo control group were set on the basis of the entecavir capsule antiviral treatment, and the planned sample amount of each group was 60 cases, totaling 240 cases. The three dose test groups were 180 mg group, 270 mg group, and 360 mg group, respectively. The proportion of each test group to the control group was 1:1:1:1, and the cases were distributed randomly. […] Negative conversion rate of HBV DNA after treatment between the groups was compared using CMH-λ2 test or Fisher's exact probability method. • 2. Liver tissue elasticity reduction after treatment between the groups was compared using Kruskal-Wallis H test. • 3. […] The recovery rate of the liver function index after treatment between the groups was compared using CMH-λ2 test or Fisher's exact probability method, and the found values of each index between the groups were compared using variance analysis or Kruskal-Wallis H test.
smiles,measurement,setting,value
Cc1ccc(=O)n(-c2ccc(O)cc2)c1 [hydronidone],mean (standard deviation) of variation of the ALT index compared with the baseline,180 mg group,44.71 (53.50)
same,proportion of the subjects with ALT indexes determined to turn normal from abnormal (baseline),180 mg group,15 (78.95%) n(%)
same,mean (standard deviation) of variation of the ALT index compared with the baseline,270 mg group,66.47 (78.13)
same,proportion of the subjects with ALT indexes determined to turn normal from abnormal (baseline),270 mg group,18 (85.71%) n(%)
same,mean (standard deviation) of variation of the ALT index compared with the baseline,360 mg group,43.58 (59.87)
same,proportion of the subjects with ALT indexes determined to turn normal from abnormal (baseline),360 mg group,16 (88.89%) n(%)

# — patent US20240261271A1, “APPLICATION OF HYDRONIDONE IN PREPARATION OF DRUG FOR TREATING OR PREVENTING CHRONIC HEPATITIS B WITH LIVER FIBROSIS” (priority 2021, published 2024)
